In ChEMBL document CHEMBL3871287, “Discovery of SMP-304, a novel benzylpiperidine derivative with serotonin transporter inhibitory activity and 5-HT1A weak partial agonistic activity showing the antidepressant-like effect” (Bioorg Med Chem, 2017):
Values belong to the compound of their own block, whether it stands above or below them. Calls of active or inactive are those of the source. No cut-off for these calls is given here.

Assays:
[1] = molecular target: T1, Sodium-dependent serotonin transporter (Homo sapiens, UniProt P31645); test: Inhibition of human SERT expressed in CHO cell membranes assessed as reduction in [3H]serotonin uptake preincubated for 10 mins followed by [3H]serotonin addition measured after 20 mins by liquid scintillation counting method; type: cell-based
[2] = molecular target: T2, 5-hydroxytryptamine receptor 1A (Homo sapiens, UniProt P08908); test: Displacement of [3H]-8-OH-DPAT from human 5-HT1A receptor expressed in CHOK1 cells after 30 mins by liquid scintillation counting analysis; type: cell-based, CHO-K1
T2 sequence (P08908 whole entry): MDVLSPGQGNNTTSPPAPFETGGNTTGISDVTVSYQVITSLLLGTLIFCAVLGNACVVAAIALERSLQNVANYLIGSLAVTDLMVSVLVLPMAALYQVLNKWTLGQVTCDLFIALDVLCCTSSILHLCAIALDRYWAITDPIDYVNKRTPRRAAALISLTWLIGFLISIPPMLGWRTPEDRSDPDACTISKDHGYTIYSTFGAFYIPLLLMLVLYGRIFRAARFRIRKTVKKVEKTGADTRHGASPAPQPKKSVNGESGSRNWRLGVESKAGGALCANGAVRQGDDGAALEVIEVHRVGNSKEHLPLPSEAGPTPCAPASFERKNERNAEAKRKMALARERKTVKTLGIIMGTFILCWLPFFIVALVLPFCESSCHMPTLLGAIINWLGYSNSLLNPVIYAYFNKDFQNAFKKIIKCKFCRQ

Cytochrome P450 2D6 = Cytochrome P450 2D6 (Homo sapiens, UniProt P10635); test: Inhibition of CYP2D6 in human liver microsomes assessed as reduction in formation of 1'-hydroxy-bufuralol from bufuralol preincubated with enzyme followed by substrate and beta-NADPH addition measured after 10 mins by LC-MS/MS analysis; type: ADME
[3] = molecular target: T1, Sodium-dependent serotonin transporter; test: Displacement of [3H]citalopram from human SERT expressed in HEK293 cell membranes after 1 hr by liquid scintillation counting method; type: cell-based
HEK293 = test: Selectivity ratio of Ki for human SERT expressed in HEK293 cell membranes to Ki for human 5-HT1A expressed in CHO-K1 cell membranes; type: cell-based
Rattus norvegicus [4] = test: Toxicity in Wistar rat assessed as increase in spontaneous locomotor activity at 3 and 10 mg/kg, po administered 26 and 2 hrs prior to testing measured for 30 mins; type: organism-based; settings: in vivo, 0.5 h
[5] = Drug uptake in Wistar rat brain at 1 mg/kg, po administered 26 and 2 hrs prior to testing by HPLC/MS analysis; type: ADME, organism-based; settings: in vivo
Rattus norvegicus [6] = test: Toxicity in Wistar rat assessed as increase in spontaneous locomotor activity at 1 and 3 mg/kg, po administered 26 and 2 hrs prior to testing measured for 30 mins; type: organism-based; settings: in vivo
[7] = Drug uptake in Wistar rat brain at 3 mg/kg, po administered 26 and 2 hrs prior to testing by HPLC/MS analysis; type: ADME, organism-based; settings: in vivo
[8] = Antidepressant-like activity in Wistar rat assessed as decrease in immobility time at 1 and 3 mg/kg, po administered 30 mins post start of training session for 2 days measured 2 hrs post last dose by forced swimming test; type: functional, organism-based

Cytochrome P450 2D6, sequence (P10635 whole entry): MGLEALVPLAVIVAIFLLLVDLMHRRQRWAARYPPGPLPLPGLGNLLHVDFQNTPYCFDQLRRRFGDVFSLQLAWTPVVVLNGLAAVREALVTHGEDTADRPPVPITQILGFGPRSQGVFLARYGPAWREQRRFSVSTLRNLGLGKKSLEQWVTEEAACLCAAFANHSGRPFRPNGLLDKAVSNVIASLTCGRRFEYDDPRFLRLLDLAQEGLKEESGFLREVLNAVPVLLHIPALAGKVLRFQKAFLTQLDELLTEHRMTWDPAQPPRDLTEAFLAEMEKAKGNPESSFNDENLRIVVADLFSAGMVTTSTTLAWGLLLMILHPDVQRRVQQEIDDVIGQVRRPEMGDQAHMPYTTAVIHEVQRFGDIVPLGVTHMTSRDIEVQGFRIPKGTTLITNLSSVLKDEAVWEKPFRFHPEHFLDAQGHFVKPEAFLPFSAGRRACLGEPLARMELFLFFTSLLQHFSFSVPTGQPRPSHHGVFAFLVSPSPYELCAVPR
T1 sequence (P31645 whole entry): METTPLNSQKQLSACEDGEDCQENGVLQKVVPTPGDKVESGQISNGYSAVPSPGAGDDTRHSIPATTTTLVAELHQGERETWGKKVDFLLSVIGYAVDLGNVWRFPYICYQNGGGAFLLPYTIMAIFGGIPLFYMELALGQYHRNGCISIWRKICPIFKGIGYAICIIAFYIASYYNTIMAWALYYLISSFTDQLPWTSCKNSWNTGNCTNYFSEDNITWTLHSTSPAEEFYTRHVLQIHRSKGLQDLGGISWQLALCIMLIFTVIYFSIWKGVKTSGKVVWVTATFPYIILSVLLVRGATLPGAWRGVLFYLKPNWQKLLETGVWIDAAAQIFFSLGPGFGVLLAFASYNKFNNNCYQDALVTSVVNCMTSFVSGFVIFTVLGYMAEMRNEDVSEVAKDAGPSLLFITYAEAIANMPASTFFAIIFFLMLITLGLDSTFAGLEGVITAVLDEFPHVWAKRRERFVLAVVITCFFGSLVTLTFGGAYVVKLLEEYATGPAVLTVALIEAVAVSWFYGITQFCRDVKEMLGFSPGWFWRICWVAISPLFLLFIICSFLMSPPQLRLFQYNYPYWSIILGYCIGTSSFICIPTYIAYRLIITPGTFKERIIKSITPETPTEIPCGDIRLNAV

SMILES: CC(C)Oc1ccc(Br)c(CC2CCN(CCc3cc4c(cc3Cl)OCCO4)CC2)c1
Ki [1]: 0.0139 µM
Ki [2]: 0.0159 µM
IC50 (Cytochrome P450 2D6): 1.5 µM

SMILES: COc1ccc(F)c(CC2CCN(CCc3ccccc3)CC2)c1
Ki [2]: 0.00604 µM
Ki [3]: 0.274 µM

SMILES: COc1ccc(Cl)c(CC2CCN(CCc3ccccc3)CC2)c1
Ki [2]: 0.00227 µM
Ki [3]: 0.102 µM

SMILES: COc1ccc(Br)c(CC2CCN(CCc3ccccc3)CC2)c1
Ki [1]: 0.0664 µM
Ki [2]: 0.00272 µM
Ki [3]: 0.0664 µM
Ratio Ki (HEK293): > 20

SMILES: Fc1ccc([C@@H]2CCNC[C@H]2COc2ccc3c(c2)OCO3)cc1 [PAROXETINE]
Activity (Rattus norvegicus [4]): Non-Toxic

SMILES: COc1cccc(CC2CCN(CCc3ccccc3)CC2)c1
Ki [2]: 0.0293 µM
Ki [3]: 0.212 µM

SMILES: COc1ccc(Br)c(CC2CCN(CCc3cccc4c3OCCO4)CC2)c1
Ki [1]: 0.0256 µM
Ki [2]: 0.00212 µM

SMILES: COc1ccc(F)c(CC2CCN(C3CCN(c4ccc(OC)c(OC)c4)CC3)CC2)c1
Ki [3]: < 0.1 µM

SMILES: COCCOc1ccc(Br)c(CC2CCN(CCc3cc4c(cc3Cl)OCCO4)CC2)c1.Cl
Drug uptake [5]: 6.74 nmol/kg
IC50 [1]: 0.306 µM
Ki [1]: 0.0327 µM
IC50 (Cytochrome P450 2D6): 3 µM
Activity (Rattus norvegicus [6]): Non-Toxic
Drug uptake [7]: 30.3 nmol/kg
Activity [8]: Active

SMILES: CCOc1ccc(Br)c(CC2CCN(CCc3cc4c(cc3Cl)OCCO4)CC2)c1
Ki [1]: 0.0187 µM
Ki [2]: 0.0234 µM
IC50 (Cytochrome P450 2D6): 1.4 µM

SMILES: COc1ccc(Br)c(CC2CCN(CCc3cccc4ccccc34)CC2)c1
Ki [1]: 0.0389 µM
Ki [2]: 0.00481 µM

SMILES: COc1ccc(Br)c(CC2CCN(CCc3cc4c(cc3Cl)OCCO4)CC2)c1
Ki [1]: 0.0124 µM
Ki [2]: 0.00646 µM
IC50 (Cytochrome P450 2D6): < 0.4 µM
Ratio Ki (HEK293): < 2

More lines, now with the values ahead:

Ki [1]: 0.0624 µM
Ki [2]: 0.00408 µM
SMILES: COc1ccc(Br)c(CC2CCN(CCc3ccccc3Cl)CC2)c1

IC50 [2]: < 0.01 µM
SMILES: COc1ccc(Br)c(CC2CCN(C3CCN(c4ccc(OC)c(OC)c4)CC3)CC2)c1

Ki [1]: 0.014 µM
Ki [2]: 0.00036 µM
SMILES: COc1ccc(Br)c(CC2CCN(CCc3ccc4c(c3)OCCO4)CC2)c1

Ki [1]: 0.0426 µM
Ki [2]: 0.00293 µM
SMILES: COc1ccc(Br)c(CC2CCN(CCc3cccc(Cl)c3)CC2)c1

Ki [1]: 0.0375 µM
Ki [2]: 0.00082 µM
SMILES: COc1cccc(CCN2CCC(Cc3cc(OC)ccc3Br)CC2)c1

Ki [1]: 0.0375 µM
Ki [2]: 0.00081 µM
SMILES: COc1ccc(CCN2CCC(Cc3cc(OC)ccc3Br)CC2)cc1

Ki [1]: 0.0189 µM
Ki [2]: 0.00104 µM
SMILES: COc1ccc(Br)c(CC2CCN(CCc3ccc(OC)c(Cl)c3)CC2)c1

Ki [1]: 0.0269 µM
Ki [2]: 0.00156 µM
SMILES: COc1ccc(Br)c(CC2CCN(CCc3ccc(OC)c(OC)c3)CC2)c1

Ki [1]: 0.0653 µM
Ki [2]: 0.0014 µM
SMILES: COc1ccc(Br)c(CC2CCN(CCc3ccc(C)cc3)CC2)c1

Ki [1]: 0.0376 µM
Ki [2]: 0.00303 µM
SMILES: COc1ccc(Br)c(CC2CCN(CCc3ccccc3OC)CC2)c1

Ki [1]: 0.0256 µM
Ki [2]: 0.00089 µM
SMILES: COc1ccc(Br)c(CC2CCN(CCc3ccc4ccccc4c3)CC2)c1

Ki [1]: 0.0305 µM
Ki [2]: 0.00112 µM
SMILES: COc1ccc(CCN2CCC(Cc3cc(OC)ccc3Br)CC2)c(Cl)c1

Ki [1]: 0.0512 µM
Ki [2]: 0.00104 µM
SMILES: COc1ccc(Br)c(CC2CCN(CCc3ccc(F)cc3)CC2)c1

Ki [1]: 0.028 µM
Ki [2]: 0.00196 µM
SMILES: COc1ccc(Br)c(CC2CCN(CCc3cc(OC)c(OC)cc3Cl)CC2)c1

Ki [1]: 0.0462 µM
Ki [2]: 0.00134 µM
SMILES: COc1ccc(Br)c(CC2CCN(CCc3ccc(Cl)cc3)CC2)c1
